# In patent US20260069588A1, “VEPDEGESTRANT FOR USE IN TREATING CANCER” (Arvinas Operation, Inc., priority 2022, published 2026):
# Assay: FIH Study Part A dose escalation: adverse events
# Text: TEAEs and TRAEs from the clinical study database were coded to system organ class and preferred term using MedDRA version 22.0 and SAEs from the centralized safety database were coded using MedDRA version 25.0. The severity of adverse events was graded according to the NCI CTCAE version 5.0.
smiles,measurement,setting,value
"O=C1CC[C@H](N2Cc3cc(N4CCN(CC5CCN(c6ccc([C@@H]7c8ccc(O)cc8CC[C@@H]7c7ccccc7)cc6)CC5)CC4)ccc3C2=O)C(=O)N1 [Compound A, (S)-3-(5-(4-((1-(4-((1R,2S)-6-hydroxy-2-phenyl-1,2,3,4-tetrahydronaphthalen-1-yl)phenyl)piperidin-4-yl)methyl)piperazin-1-yl)-1-oxoisoindolin-2-yl)piperidine-2,6-dione]",TRAE Nausea,200 mg (N=8),2 n
same,TRAE Vomiting,200 mg (N=8),1 n
same,TEAE Alanine aminotransferase increased,360 mg (N=15),1 n
same,TEAE Arthralgia,360 mg (N=15),2 n
same,TEAE Aspartate aminotransferase increased,360 mg (N=15),0 n
same,TEAE Back pain,360 mg (N=15),2 n
same,TEAE Constipation,360 mg (N=15),5 n
same,TEAE Decreased appetite,360 mg (N=15),4 n
same,TEAE Diarrhea,360 mg (N=15),4 n
same,TEAE Dizziness,360 mg (N=15),2 n
same,TEAE Fatigue,360 mg (N=15),4 n
same,TEAE Headache,360 mg (N=15),4 n
same,TEAE Hot flush,360 mg (N=15),2 n
same,TEAE Hyperglycemia,360 mg (N=15),2 n
same,TEAE Insomnia,360 mg (N=15),1 n
same,TEAE Nausea,360 mg (N=15),4 n
same,TEAE Pain in extremity,360 mg (N=15),1 n
same,TEAE Vomiting,360 mg (N=15),5 n
same,TRAE Arthralgia,360 mg (N=15),0 n
same,TRAE Constipation,360 mg (N=15),3 n
same,TRAE Decreased appetite,360 mg (N=15),2 n
same,TRAE Fatigue,360 mg (N=15),3 n
same,TRAE Hot flush,360 mg (N=15),1 n
same,TRAE Nausea,360 mg (N=15),3 n
same,TRAE Vomiting,360 mg (N=15),2 n
same,TEAE Alanine aminotransferase increased,500 mg (N=22),2 n
same,TEAE Arthralgia,500 mg (N=22),4 n
same,TEAE Aspartate aminotransferase increased,500 mg (N=22),1 n
same,TEAE Back pain,500 mg (N=22),6 n
same,TEAE Constipation,500 mg (N=22),10 n
same,TEAE Decreased appetite,500 mg (N=22),2 n
same,TEAE Diarrhea,500 mg (N=22),3 n
same,TEAE Dizziness,500 mg (N=22),2 n
same,TEAE Fatigue,500 mg (N=22),14 n
same,TEAE Headache,500 mg (N=22),3 n
same,TEAE Hot flush,500 mg (N=22),5 n
same,TEAE Hyperglycemia,500 mg (N=22),5 n
same,TEAE Insomnia,500 mg (N=22),4 n
same,TEAE Nausea,500 mg (N=22),9 n
same,TEAE Pain in extremity,500 mg (N=22),5 n
same,TEAE Vomiting,500 mg (N=22),4 n
same,TRAE Arthralgia,500 mg (N=22),2 n
same,TRAE Constipation,500 mg (N=22),3 n
same,TRAE Decreased appetite,500 mg (N=22),1 n
same,TRAE Fatigue,500 mg (N=22),9 n
same,TRAE Hot flush,500 mg (N=22),5 n
same,TRAE Nausea,500 mg (N=22),7 n
same,TRAE Vomiting,500 mg (N=22),3 n
same,TEAE Alanine aminotransferase increased,700 mg (N=4),0 n
same,TEAE Arthralgia,700 mg (N=4),0 n
same,TEAE Aspartate aminotransferase increased,700 mg (N=4),2 n
same,TEAE Back pain,700 mg (N=4),2 n
same,TEAE Constipation,700 mg (N=4),1 n
same,TEAE Decreased appetite,700 mg (N=4),1 n
same,TEAE Diarrhea,700 mg (N=4),1 n
same,TEAE Dizziness,700 mg (N=4),2 n
same,TEAE Fatigue,700 mg (N=4),2 n
same,TEAE Headache,700 mg (N=4),1 n
same,TEAE Hot flush,700 mg (N=4),0 n
same,TEAE Hyperglycemia,700 mg (N=4),1 n
same,TEAE Insomnia,700 mg (N=4),1 n
same,TEAE Nausea,700 mg (N=4),2 n
same,TEAE Pain in extremity,700 mg (N=4),0 n
same,TEAE Vomiting,700 mg (N=4),1 n
same,TRAE Arthralgia,700 mg (N=4),0 n
same,TRAE Constipation,700 mg (N=4),0 n
same,TRAE Decreased appetite,700 mg (N=4),0 n
same,TRAE Fatigue,700 mg (N=4),2 n
same,TRAE Hot flush,700 mg (N=4),0 n
same,TRAE Nausea,700 mg (N=4),1 n
same,TRAE Vomiting,700 mg (N=4),0 n
same,Grade 4 or Grade 5 TRAEs,6 Jun 2023,no Grade 4 or Grade 5 TRAEs
same,Grade 1 TEAEs,"6 Jun 2023, N=83",34.9%
same,Grade 1 TRAEs,"6 Jun 2023, N=83",41.0%
same,Grade 2 TEAEs,"6 Jun 2023, N=83",41.0%
same,Grade 2 TRAEs,"6 Jun 2023, N=83",24.1%
same,Grade 3 TEAEs,"6 Jun 2023, N=83",16.9%
same,Grade 3 TRAE electrocardiogram QT prolonged,"6 Jun 2023, N=83",2 patients
same,Grade 4 TEAEs,"6 Jun 2023, N=83",2.4%
same,Grade 5 TEAE,"6 Jun 2023, N=83",1.2%
same,TEAE of Grade ≥3,"6 Jun 2023, N=83",20.5%
same,patients with Grade 3 TRAEs,"6 Jun 2023, N=83",7.2%
same,patients with at least 1 TEAE,"6 Jun 2023, N=83",96.4%
same,patients with at least 1 TRAE,"6 Jun 2023, N=83",72.3%
same,SAEs,"6 Jun 2023, N=83, 11",13.3%
same,deaths,33 of 83 participants,39.8%
same,"SAE Procedural pain, Grade","Patient 1, 30 mg QD, onset day 30, Not related",3
same,"SAE Humerus fracture, Grade","Patient 2, 250 mg BID, onset day 59, Not related",3
same,"SAE Embolism venous, Grade","Patient 3, 360 mg QD, onset day 42, Possibly related, SUSAR",3
same,"SAE Colitis, Grade","Patient 4, 200 mg QD",1
same,"SAE Neutrophil count decreased, Grade","Patient 4, 200 mg QD",4
same,"SAE Stomatitis, Grade","Patient 4, 200 mg QD, onset day 79, Not related",3
same,"SAE Malignant pleural effusion, Grade","Patient 5, 250 mg BID, onset day 10",3
same,"SAE Cardiac arrest, Grade","Patient 5, 250 mg BID, onset day 26, Not related",5
same,"SAE Embolism, Grade","Patient 6, 360 mg QD, onset day 54, Unlikely related",3
same,"SAE Hypoglycemia, Grade","Patient 7, 500 mg QD, onset day 49, Not related",4
same,"SAE Acute kidney injury, Grade","Patient 8, 100 mg QD, onset day 118, Not related",3
same,TEAE Alanine aminotransferase increased,Total (N=78),8 n
same,TEAE Arthralgia,Total (N=78),14 n
same,TEAE Aspartate aminotransferase increased,Total (N=78),11 n
same,TEAE Back pain,Total (N=78),13 n
same,TEAE Constipation,Total (N=78),24 n
same,TEAE Decreased appetite,Total (N=78),12 n
same,TEAE Diarrhea,Total (N=78),13 n
same,TEAE Dizziness,Total (N=78),8 n
same,TEAE Fatigue,Total (N=78),26 n
same,TEAE Headache,Total (N=78),13 n
same,TEAE Hot flush,Total (N=78),11 n
same,TEAE Hyperglycemia,Total (N=78),10 n
same,TEAE Insomnia,Total (N=78),9 n
same,TEAE Nausea,Total (N=78),26 n
same,TEAE Pain in extremity,Total (N=78),10 n
same,TEAE Vomiting,Total (N=78),14 n
same,TRAE Arthralgia,Total (N=78),8 n
same,TRAE Constipation,Total (N=78),10 n
same,TRAE Decreased appetite,Total (N=78),8 n
same,TRAE Fatigue,Total (N=78),17 n
same,TRAE Hot flush,Total (N=78),8 n
same,TRAE Nausea,Total (N=78),20 n
same,TRAE Vomiting,Total (N=78),8 n
same,Grade 4 or Grade 5 TRAEs,cut-off 6 Jun 2022,no Grade 4 or Grade 5 TRAEs
same,patients reporting SAEs,cut-off 6 Jun 2022,8 of 78 patients
same,total SAEs,cut-off 6 Jun 2022,11 SAEs
same,Grade 1 TEAEs,"cut-off 6 Jun 2022, N=78",34.6%
same,Grade 1 TRAEs,"cut-off 6 Jun 2022, N=78",42.3%
same,Grade 2 TEAEs,"cut-off 6 Jun 2022, N=78",39.7%
same,Grade 2 TRAEs,"cut-off 6 Jun 2022, N=78",21.8%
same,Grade 3 TEAEs,"cut-off 6 Jun 2022, N=78",11.5%
same,Grade 3 hypertension,"cut-off 6 Jun 2022, N=78",2 patients
same,Grade 4 TEAEs,"cut-off 6 Jun 2022, N=78",3.8%
same,Grade 5 TEAE,"cut-off 6 Jun 2022, N=78",1.3%
same,TEAE of Grade ≥3,"cut-off 6 Jun 2022, N=78",16.7%
same,patients with Grade 3 TRAEs,"cut-off 6 Jun 2022, N=78",5.1%
same,patients with at least 1 TEAE,"cut-off 6 Jun 2022, N=78",91.0%
same,patients with at least 1 TRAE,"cut-off 6 Jun 2022, N=78",69.2%
same,TEAE leading to discontinuation,five of 83 patients,6.0%
